In patent US9393221B2, “Methods and compounds for reducing intracellular lipid storage” (THE GENERAL HOSPITAL CORPORATION, priority 2011, dated 2016):
Counter-ions that a name gives are not always drawn.

test system: ATGL-KO iPSCs; assay: High throughput iPSC chemical screening, Oil Red O (ORO) lipid accumulation; type: cell-based, mouse; details: normalized ORO level vs DMSO-treated cells; compound present during 7 days differentiation, 96-well; negative = decrease in lipid accumulation; further: test concentration or dose not given here

Row | SMILES | Z-score
1 | CC(=O)SCC(Cc1ccccc1)C(=O)NCC(=O)OCc1ccccc1 (centres unmarked) [Racecadotril] | 0.516
2 | O=C(c1ccc(OCCN2CCCCC2)cc1)c1c(-c2ccc(O)cc2)sc2cc(O)ccc12 [Raloxifene hydrochloride] | −0.8574
3 | CCOC(=O)[C@H](CCc1ccccc1)N[C@@H](C)C(=O)N1[C@H](C(=O)O)C[C@@H]2CCC[C@@H]21 [Ramipril] | 1.188
4 | CNC(=C[N+](=O)[O-])NCCSCc1ccc(CN(C)C)o1 [Ranitidine hydrochloride] | −0.5642
5 | COC(=O)[C@H]1[C@H]2C[C@H]3c4[nH]c5ccccc5c4CCN3C[C@H]2CC[C@@H]1O [Rauwolscine hydrochloride] | −0.7161
6 | CCN1CCC[C@H]1CNC(=O)c1c(OC)ccc(Br)c1OC [Remoxipride Hydrochloride] | −0.4559
7 | CCOc1cc(CC(=O)N[C@@H](CC(C)C)c2ccccc2N2CCCCC2)ccc1C(=O)O [Repaglinide] | −0.2231
8 | COC(=O)[C@H]1[C@H]2C[C@@H]3c4[nH]c5cc(OC)ccc5c4CCN3C[C@H]2C[C@@H](OC(=O)/C=C/c2cc(OC)c(OC)c(OC)c2)[C@@H]1OC [Rescinnamin] | 1.097
9 | COC(=O)[C@H]1[C@H]2C[C@@H]3c4[nH]c5cc(OC)ccc5c4CCN3C[C@H]2C[C@@H](OC(=O)c2cc(OC)c(OC)c(OC)c2)[C@@H]1OC [Reserpine] | −0.083
10 | COc1ccc2c3c([nH]c2c1)[C@H]1C[C@H]2[C@H](C[C@@H](O)[C@H](OC)[C@H]2C(=O)O)CN1CC3.Cl [Reserpinic acid hydrochloride] | −1.3417
11 | Oc1ccc(C=Cc2cc(O)cc(O)c2)cc1 [Resveratrol] | 11.669
12 | CC1=C(/C=C/C(C)=C/C=C/C(C)=C/C(=O)O)C(C)(C)CCC1 [Retinoic acid] | −0.7042
13 | NC(=O)c1ncn([C@@H]2O[C@H](CO)[C@@H](O)[C@H]2O)n1 [Ribavirin] | −1.5081
14 | Cc1cc2nc3c(=O)[nH]c(=O)nc-3n(C[C@H](O)[C@H](O)[C@H](O)CO)c2cc1C [Riboflavine] | 0.1165
15 | NC[C@H]1O[C@H](O[C@H]2[C@H](O[C@@H]3O[C@H](CO)[C@@H](O)[C@H]3O)[C@@H](O)[C@H](N)C[C@@H]2N)[C@H](N)[C@@H](O)[C@@H]1O [Ribostamycin sulfate salt] | −0.4737
16 | COc1ccn(C)c(=O)c1C#N [Ricinine] | −1.4299
17 | CO[C@H]1/C=C/O[C@@]2(C)Oc3c(C)c(O)c4c(c3C2=O)C2=NC3(CCN(CC(C)C)CC3)NC2=C(NC(=O)/C(C)=C\C=C\[C@H](C)[C@H](O)[C@@H](C)[C@@H](O)[C@@H](C)[C@H](OC(C)=O)[C@@H]1C)C4=O [Rifabutin] | 1.521
18 | CO[C@H]1/C=C/O[C@@]2(C)Oc3c(C)c(O)c4c(O)c(c(/C=N/N5CCN(C)CC5)c(O)c4c3C2=O)NC(=O)/C(C)=C\C=C\[C@H](C)[C@H](O)[C@@H](C)[C@@H](O)[C@@H](C)[C@H](OC(C)=O)[C@@H]1C [Rifampicin] | −0.5227
19 | C1COC(NC(C2CC2)C2CC2)=N1 [Rilmenidine hemifumarate] | −1.0936
20 | CCC(=O)[C@@]1(C)[C@H](C)C[C@H]2[C@@H]3CCC4=CC(=O)C=C[C@]4(C)[C@H]3[C@@H](O)C[C@@]21C [Rimexolone] | −0.4134
21 | Cc1nc2n(c(=O)c1CCN1CCC(c3noc4cc(F)ccc34)CC1)CCCC2 [Risperidone] | −0.0533
22 | CC(NCCc1ccc(O)cc1)C(O)c1ccc(O)cc1 (centres unmarked) [Ritodrine hydrochloride] | 0.3787
23 | COc1ccc(C2CNC(=O)C2)cc1OC1CCCC1 (centres unmarked) [Rolipram] | −0.7794
24 | CN(C)[C@@H]1C(O)=C(C(=O)NCN2CCCC2)C(=O)[C@@]2(O)C(O)=C3C(=O)c4c(O)cccc4[C@@](C)(O)[C@H]3C[C@@H]12 [Rolitetracycline] | −0.3523
25 | Cn1c([N+](=O)[O-])cnc1COC(N)=O [Ronidazole] | 1.5256
26 | O=[N+]([O-])c1cc([As](=O)(O)O)ccc1O [Roxarsone] | −0.5936
